Source: patent publication US5622942A, “Percutaneous absorptive anesthetic” (priority 1993, dated 1997)

Key:
[1] = Acute toxic examination (LD50), oral, rat; conditions: in vivo
Procedure: The results of acute toxic examination (LD50) which was carried out with the rat through the oral dose of the compound were follows.

[2] = system: skin; experiment: Double-blind pinprick procedure pain score at the vein puncture area in patients; type: in vivo, patient (human); conditions: ointment c versus ointment b, p<0.05
Procedure: A patient who was to receive an operation.
The sponge was applied over an area in which the vein is punctured in accordance with a double-blind assay method. The area was sealed off with a transparent tape, and the topical reaction and the painless effect occurring on the skin were compared about 1 hour later.
The following pain score was employed as a criterion.
When the pain score was zero, the needle was pierced into the skin about 1.0 mm deep to verify the pain.

[3] = system: skin; experiment: Preparatory pinprick test of skin anesthesia effect, 3% absorption promoter and 2% lidocaine aqueous gel-ointment; type: in vivo, healthy adult (human); conditions: for time at which effect of the skin anesthesia began / time of complete skin anesthesia: after application, 3% promoter + 2% lidocaine; for skin anesthesia effect, in words: pinprick, up to 4 hours after application
Procedure: Same as that in the experimental example 1.
A preparatory experiment was carried out to verify the skin anesthesia effect of various lidocaine aqueous gel-ointments when they are applied in the quantity of 0.3 g/4 cm^2.
Pinprick test was carried out to compare results utilizing lidocaine aqueous gel-ointment which was prepared by mixing the ointments d-h, Xylocaine Jelly (Trademark registered, containing 2% lidocaine, made by Fujisawa Pharmaceutical Co., Ltd.), Azone, a known percutaneous absorption promoter, sodium caprate (to be indicated as Cap Na hereinafter) and isopropyl myristate (to be indicated as IPM hereinafter).
The skin over which various ointments were applied was pierced several times using a 26 gauge intradermal needle at the time of 1, 1.5, 2, 3 and 4 hours after the application, and the degree of pain felt by the adult was evaluated according to a criterion given below.
++ No pain felt at the area where the ointment was applied.
+ Pain felt at some portions.
- Pain felt at that area.

[4] = Lidocaine blood concentration after application of ointment to the rat abdomen (fluorescence polarization immunoassay); type: in vivo, Wistar rat
Text: (1) Experimental Animal Wistar rat a. Aqueous gel ointment containing 2% of lidocaine. b. Aqueous gel ointment containing 10% of lidocaine. c. Aqueous gel ointment in (b) containing 3% of compound 4. e. Aqueous gel ointment in (a) containing 3% of compound 4. […] Group with an ointment a applied. Group with an ointment e applied. […] Group with an ointment c applied. Group with 3% Azone (Trademark registered)--10% lidocaine aqueous gel-ointment applied. […] In these groups, the rats had their body portion covered with a polyethylene food wrapping sheet at an area where an ointment was applied, and sealed by means of transparent tape. Then, a blood was withdrawn through a cannula which had been inserted into the carotid. The blood was pretreated with a heparin and separated by means of centrifugal separator to obtain blood plasma. A fluorescence polarization immunoassay was used to determine the concentration of the lidocaine in the blood.

Row | SMILES | LD50 [1] [mg/kg] | effect in removing the pain of the skin, in words [2] | time at which effect of the skin anesthesia began [3] [h] | time of complete skin anesthesia [3] [h] | lidocaine blood concentration ([4]; 2% lidocaine ointments (groups 1 and 2), with or without 3% compound 4) | absorption promoting effect (lidocaine blood concentration) ([4]; 10% lidocaine aqueous gel ointment (groups 3-5), 3% promoter, up to five hours) | absorption promoting effect (lidocaine blood concentration) ([4]; rat, in vivo) | skin anesthesia effect, in words [3]
1 | CC1(C)[C@@H](OC(=O)c2ccccc2C(=O)O)CC[C@]2(C)[C@H]3C(=O)C=C4[C@@H]5C[C@@](C)(C(=O)O)CC[C@]5(C)CC[C@@]4(C)[C@]3(C)CC[C@@H]12 [Compound 4, Glycyrrhetic acid 3β-monohemiphthalate] | 1320 | effective in removing the pain of the skin | 1.5 | 2 | any significant result was not observed | an absorption promoting effect of the compound 4 was acknowledged | – | –
2 | CC1(C)[C@@H](OC(=O)c2ccccc2C(=O)O)CC[C@]2(C)[C@H]3C=CC4=C5C[C@@](C)(COC(=O)c6ccccc6C(=O)O)CC[C@]5(C)CC[C@@]4(C)[C@]3(C)CC[C@@H]12 [Compound 7, Olean-11,13(18)-diene-3 β, 30-diol-3 β, 30-dihemiphthalate] | 628 to 793 | – | 1.5 | 2 | – | – | – | –
3 | CCCCCCCCCCCCN1CCCCCC1=O [Azone, reference compound] | – | – | – | – | – | – | no major effect of improving absorption was found | –
4 | CC1(C)[C@@H](OC(=O)c2ccccc2C(=O)O)CC[C@]2(C)[C@H]3CC=C4[C@@H]5C[C@@](C)(COC(=O)c6ccccc6C(=O)O)CC[C@]5(C)CC[C@@]4(C)[C@]3(C)CC[C@@H]12 [Compound 5, 18β-olean-12-ene-3 β, 30-diol-3 β, 30-dihemiphthalate] | 1260 to 1520 | – | – | – | – | – | – | skin anesthesia effect substantially equal to that by Azone
5 | CC1(C)[C@@H](OC(=O)CCC(=O)O)CC[C@]2(C)[C@H]3C(=O)C=C4[C@@H]5C[C@@](C)(C(=O)O)CC[C@]5(C)CC[C@@]4(C)[C@]3(C)CC[C@@H]12 [Compound 3, Glycyrrhetic acid 3β-monohemisuccinate] | 520 | – | 1.5 | 2 | – | – | – | –
6 | CC1(C)[C@@H](OC(=O)c2ccccc2C(=O)O)CC[C@]2(C)C3=CC=C4[C@@H]5C[C@@](C)(COC(=O)c6ccccc6C(=O)O)CC[C@]5(C)CC[C@@]4(C)[C@]3(C)CC[C@@H]12 [Compound 6, 18β-olean-9(11), 12-diene-3 β, 30-diol-3 β, 30-dihemiphthalate] | 1280 to 1500 | – | – | – | – | – | – | skin anesthesia effect substantially equal to that by Azone
